Each structure is given as a SMILES string.

A short description of this data set: Human HepG2 cell viability assay in 384 well format. Type of data set: toxicity, cell-based. Also noted: dose 125 nL, time 70.5 hour; cytotoxicity at 70.5 h: concentration not given beside the values. As to conditions: HepG2 cells, read-out: Inhibition.
As to `CCN1CCN(Cc2coc(-c3cccc(F)c3)n2)CC1`, the cytotoxicity at 70.5 h was determined as 20.2%.

`O=C(Nc1cn[nH]c1)c1ccncc1`: the cytotoxicity at 70.5 h turned out to be 4.52%.

Turning to `CC(=O)N1CCN(C(=O)CCn2c(C)nc3ccccc3c2=O)CC1`, the cytotoxicity at 70.5 h was -7.85%.

As for `CN(Cc1ccncc1)C(=O)NC1CCCN(c2ncccn2)C1` (stereo not drawn), the cytotoxicity at 70.5 h is -1.22%.

Consider `CCN(CC)C(=O)Cn1ccc2cc(NC(C)=O)ccc21`, for which the cytotoxicity at 70.5 h is -3.27%.

As to `CCC(=O)Nc1ccc2c(ccn2CC(=O)N(CC)CC)c1`, the cytotoxicity at 70.5 h was -3.74%.

Consider `CCN(CC)C(=O)Cn1ccc2cc(NC(=O)COC)ccc21`, for which the cytotoxicity at 70.5 h was -2.77%.

Turning to `Cc1ccc(C(=O)N(C)Cc2ccc3c(c2)OCO3)c(=O)[nH]1`, the cytotoxicity at 70.5 h was -4.29%.

`COC1CCN(C(=O)Cc2csc(-c3ccccc3)n2)CC1`: the cytotoxicity at 70.5 h is -5.23%.

With `CC(C)(C)n1cc(C(=O)N2CCN(Cc3cccnc3)CC2)cn1`, the cytotoxicity at 70.5 h was -7.69%.

`COc1c(CNC(c2ccccc2F)c2nccn2C)c(C)nn1C` (stereo not drawn): the cytotoxicity at 70.5 h is -4.51%.

Regarding `CC(C)(C)n1cc(C(=O)N2CCN(Cc3ccncc3)CC2)cn1`, the cytotoxicity at 70.5 h is -2.1%.

As to `Cc1nc2ccccc2c(=O)n1CCCC(=O)N1CCNC(=O)CC1`, the cytotoxicity at 70.5 h was 2.21%.

On to `Cc1nn(C)c(N(C)C)c1CNC1CCOc2c(Cl)cccc21` (stereo not drawn), for which the cytotoxicity at 70.5 h was 23.4%.

For the molecule `CC(C)(C)n1cc(C(=O)N2CCN(Cc3ccco3)CC2)cn1`, the cytotoxicity at 70.5 h is -8.01%.

Turning to `CC(Cn1ccnc1)NC(=O)N1CCN(Cc2ccncc2)CC1` (stereo not drawn), the cytotoxicity at 70.5 h was -2.15%.

Regarding `CN1CCCC1CNC(=O)CCOc1ccc(Br)cc1` (stereo not drawn), the cytotoxicity at 70.5 h was 2.76%.

As to `CN(CC(=O)N1CCCC1)C(=O)Cc1csc(-c2ncccn2)n1`, the cytotoxicity at 70.5 h is -1.25%.

Take `O=C(Nc1cnn(CCN2CCOCC2)c1)c1ccccc1Cl`: the cytotoxicity at 70.5 h was 0.235%.

Turning to `CCN(CC)C(=O)Cn1ccc2cc(NC(=O)NC3CC3)ccc21`, the cytotoxicity at 70.5 h was -3.42%.

Regarding `O=C(CCc1ccc(-c2ccccc2)[nH]1)N1CCCC(n2ccnc2)C1` (stereo not drawn), the cytotoxicity at 70.5 h was -1.63%.

Consider `N#Cc1cccnc1N1CCC(C2CCCCCN2C(N)=O)CC1` (stereo not drawn), for which the cytotoxicity at 70.5 h is -3.78%.

As for `CNc1nc(CNC(=O)Nc2cccc(Cl)c2Cl)cs1`, the cytotoxicity at 70.5 h is -1.34%.

With `CCN(CC)C(=O)Cn1ccc2cc(NC(=O)C3CCCCC3)ccc21`, the cytotoxicity at 70.5 h was found to be 14.5%.

As to `CC(Cn1ccnc1)NC(=O)N1CCN(Cc2ccco2)CC1` (stereo not drawn), the cytotoxicity at 70.5 h amounted to 0.365%.

In the case of `CN1CCCC1CNC(=O)CCCOc1ccc(Br)cc1` (stereo not drawn), the cytotoxicity at 70.5 h was -3.72%.

Take `Cc1cc(NC(=O)CN2CCn3c(nnc3C(C)C)C2)n(C)n1`: the cytotoxicity at 70.5 h came out at 34.7%.

On to `Cc1cnn(CCNCc2csc(-c3ccccc3)n2)c1`, for which the cytotoxicity at 70.5 h stood at 15.6%.

With `Cc1nc(C2CCCN2CCCS(N)(=O)=O)no1` (stereo not drawn), the cytotoxicity at 70.5 h was determined as 17%.

For the molecule `CC(C(=O)N1CCCN(Cc2ccc(C#N)cc2)CC1)n1cncn1` (stereo not drawn), the cytotoxicity at 70.5 h was -1.82%.

As to `CCOC(=O)CN(C)C1CCc2ccccc21` (stereo not drawn), the cytotoxicity at 70.5 h amounted to 26.7%.

Take `CCOCC(O)CN1CCN(C(=O)Cc2cccc(C)c2)CC1` (stereo not drawn): the cytotoxicity at 70.5 h is -4.31%.

As to `CCn1c(CN2CCN(CCOC)CC2)nc2c(F)cccc21`, the cytotoxicity at 70.5 h amounted to 2.86%.

In the case of `CC(O)CNC(=O)NCc1ccc(N2CCNC(=O)C2)cc1` (stereo not drawn), the cytotoxicity at 70.5 h came out at 2.26%.

On to `Cc1cc(C)n(CC2CN(CC(=O)Nc3nncs3)CCO2)n1` (stereo not drawn), for which the cytotoxicity at 70.5 h came to 0.137%.

Consider `Cc1cc(C[S+]([O-])CC(=O)NCC(C)C)no1` (stereo not drawn), for which the cytotoxicity at 70.5 h is -1.65%.

Take `CN1CCN(C2CCN(CCOc3ccc(F)cc3)CC2)C1=O`: the cytotoxicity at 70.5 h was determined as 18.4%.

As for `COc1cn(-c2ccccc2)nc1C(=O)NCCCN1CCCC(C)C1` (stereo not drawn), the cytotoxicity at 70.5 h is -11.2%.

`CC(C)OCCN1CCC(N2CCN(C)C2=O)CC1`: the cytotoxicity at 70.5 h was -2.99%.

For `Cc1cnn(CC2CN(Cc3cccc(OCC(N)=O)c3)CCO2)c1` (stereo not drawn), the cytotoxicity at 70.5 h was -5.97%.

As for `CCc1csc(C2CCCN(C(=O)c3c[nH]c(C)n3)C2)n1` (stereo not drawn), the cytotoxicity at 70.5 h was -12%.

On to `CCc1nc(C2CCCN2CC(=O)Nc2c(C)n[nH]c2C)no1` (stereo not drawn), for which the cytotoxicity at 70.5 h was found to be 5.42%.

As to `Cc1nc(C)n(CC2CCCCN2Cc2nnc(C3CC3)o2)n1` (stereo not drawn), the cytotoxicity at 70.5 h is 0.151%.

With `COCCN1CCC(NCc2cccc(F)c2)C1` (stereo not drawn), the cytotoxicity at 70.5 h is 26.3%.

Take `CC(C)c1nn(C)c(N(C)C)c1CNCC(O)c1ccccc1F` (stereo not drawn): the cytotoxicity at 70.5 h amounted to 17.9%.

In the case of `O=C(NCC1CCOC1)c1csc(-c2cccc(Cl)c2)n1` (stereo not drawn), the cytotoxicity at 70.5 h turned out to be 1.75%.

In the case of `O=c1[nH]c(CN(Cc2ccco2)C2CCCC2)nc2ccccc12`, the cytotoxicity at 70.5 h turned out to be 5.19%.

Take `CCOc1ccc(Cl)c(C(=O)N2CCN(C(=O)c3ccoc3C)CC2)n1`: the cytotoxicity at 70.5 h is -1.97%.

Consider `Cn1ncc2c(=O)[nH]c(CN(Cc3ccco3)C3CCCC3)nc21`, for which the cytotoxicity at 70.5 h was -0.279%.

On to `CCOc1ccc(Cl)c(C(=O)N2CCN(c3cnccn3)CC2)n1`, for which the cytotoxicity at 70.5 h was determined as 38.9%.

With `Cn1cc(CCC(=O)N2CCN(Cc3ccncc3)CC2)cn1`, the cytotoxicity at 70.5 h turned out to be 2.28%.

In the case of `Cc1ccc(C(O)CNCc2c(C(C)C)nn(C)c2N(C)C)cc1` (stereo not drawn), the cytotoxicity at 70.5 h was found to be 0.581%.

For `CNC(=O)c1ccc(C(=O)N2CCCC(n3cc(C)cn3)C2)cn1` (stereo not drawn), the cytotoxicity at 70.5 h amounted to 40.9%.

On to `Cc1cnn(C2CCCN(C(=O)c3ccc(N(C)C)nn3)C2)c1` (stereo not drawn), for which the cytotoxicity at 70.5 h is -10.7%.

For the molecule `CC(C)Cc1cc(NC(=O)c2ccc[nH]2)n(C)n1`, the cytotoxicity at 70.5 h was -11.1%.

With `COC(=O)c1cccn1C1CCN(C(=O)c2cn[nH]c2C)CC1`, the cytotoxicity at 70.5 h was -1.46%.

Turning to `CCn1cnnc1C1CCN(C(=O)c2ccccc2OC)CC1`, the cytotoxicity at 70.5 h was -8.77%.

For `CN(c1cccnn1)C1CCN(C(=O)c2ccc3c(c2)COC3)CC1`, the cytotoxicity at 70.5 h was -13.7%.

Turning to `c1ccc(CCN2CCN(c3ccc4nncn4n3)CC2)nc1`, the cytotoxicity at 70.5 h was -6.96%.

Turning to `O=C(c1ccc2c(c1)COC2)N1CCC(Nc2cccnn2)CC1`, the cytotoxicity at 70.5 h is -1.47%.

Regarding `CC(NC(=O)CNCCn1cccn1)c1ccc2c(c1)CCCC2` (stereo not drawn), the cytotoxicity at 70.5 h is -4.4%.

`CCc1nccn1C1CCCN(C(=O)c2ccc3[nH]c(=O)[nH]c3c2)C1` (stereo not drawn): the cytotoxicity at 70.5 h was 29%.

As for `Cc1oc(C(=O)O)cc1S(=O)(=O)Nc1cc(Cl)ccc1F`, the cytotoxicity at 70.5 h is -7.55%.

For `Cc1cccc(NS(=O)(=O)c2cc(C(=O)O)oc2C)c1Cl`, the cytotoxicity at 70.5 h amounted to 1.03%.

In the case of `O=C(c1ccc2c(c1)COC2)N1CCC(Nc2ccccc2)CC1`, the cytotoxicity at 70.5 h worked out at 1.02%.

Turning to `CCn1cnnc1CNC(=O)N1CCN(c2cccs2)CC1`, the cytotoxicity at 70.5 h amounted to 25.1%.

Turning to `COc1cccc(C(=O)Nc2cc(CC(C)C)nn2C)c1`, the cytotoxicity at 70.5 h was determined as 3.59%.

Turning to `FC(F)(F)COCCN1CCN(c2ccc3nncn3n2)CC1`, the cytotoxicity at 70.5 h is 1.24%.

For `COCCN1CCC(NCc2ccc(C#N)cc2)C1` (stereo not drawn), the cytotoxicity at 70.5 h came to 34.1%.

Consider `CCc1noc(CNc2ccc(C(=O)N3CCCC(C)C3)cc2C)n1` (stereo not drawn), for which the cytotoxicity at 70.5 h is -10.5%.

As for `NC(=O)c1cc(C2CCCN(C(=O)CCc3cscn3)C2)n[nH]1` (stereo not drawn), the cytotoxicity at 70.5 h is -11.7%.

For the molecule `O=C1NCCN1C1CCN(Cc2nc(-c3ccoc3)no2)CC1`, the cytotoxicity at 70.5 h is 7.71%.

In the case of `Cc1nn(C)c(N(C)C)c1CNC1CCc2c(Cl)cccc21` (stereo not drawn), the cytotoxicity at 70.5 h was -1.83%.

The values are drawn from ChEMBL document CHEMBL3507680, “University of Dundee, Gates Library screen for HepG2 cell viability”.
